Measurements published in US8143290B2, “Chemical compounds 572” (AstraZeneca AB, priority 2006, dated 2012).
pIC50: −log10 of the molar value.

These compounds were tested against T1, recombinant human GR (Homo sapiens, UniProt P04150) (assay: Human Glucocorticoid Receptor (GR) Assay, fluorescence polarization). Conditions: GS Red tracer, incubated 2 h at r.t., XLfit model 205, read-out: GRhuFL_FP_v2 Mean IC50.
T1 construct: purchased Panvera/Invitrogen P2812 (kit P2893)
T1 sequence (P04150 1-777): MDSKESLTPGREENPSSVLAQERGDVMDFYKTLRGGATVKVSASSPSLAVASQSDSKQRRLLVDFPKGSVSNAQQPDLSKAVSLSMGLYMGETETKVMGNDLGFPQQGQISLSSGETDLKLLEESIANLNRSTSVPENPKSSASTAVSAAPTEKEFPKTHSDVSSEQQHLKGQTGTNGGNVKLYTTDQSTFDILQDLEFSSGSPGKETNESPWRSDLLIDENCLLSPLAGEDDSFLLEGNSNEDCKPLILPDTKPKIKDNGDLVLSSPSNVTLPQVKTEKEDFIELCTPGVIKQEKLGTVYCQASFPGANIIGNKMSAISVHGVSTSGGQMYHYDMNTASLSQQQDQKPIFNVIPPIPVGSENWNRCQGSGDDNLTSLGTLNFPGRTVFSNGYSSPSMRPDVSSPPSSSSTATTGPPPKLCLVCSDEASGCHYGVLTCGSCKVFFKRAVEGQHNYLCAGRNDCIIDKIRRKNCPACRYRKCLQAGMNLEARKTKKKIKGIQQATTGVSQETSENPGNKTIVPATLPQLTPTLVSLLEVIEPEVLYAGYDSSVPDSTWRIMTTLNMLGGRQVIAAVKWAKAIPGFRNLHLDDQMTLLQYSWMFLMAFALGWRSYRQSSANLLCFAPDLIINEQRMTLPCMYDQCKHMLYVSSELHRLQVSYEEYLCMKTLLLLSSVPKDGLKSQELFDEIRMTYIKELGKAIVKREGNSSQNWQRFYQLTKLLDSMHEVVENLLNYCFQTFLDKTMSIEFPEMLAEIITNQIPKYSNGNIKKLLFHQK
Format: binding
Outline: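 Fluorescence polarization kit assay: recombinant GR and GS Red fluorescent ligand with Stabilizing Peptide and DTT in potassium phosphate/sodium molybdate/EDTA screening buffer. Plates incubated 2 h in the dark at r.t.; DMSO served as 0% and dexamethasone as 100% control.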
For C[C@H](NC(=O)C(C)(F)F)[C@H](Oc1ccc2c(cnn2-c2ccc(F)cc2)c1)c1cccc(F)c1 [Example 230, 2,2-difluoro-N-[(1R,2S)-1-(3-fluorophenyl)-1-[1-(4-fluorophenyl)indazol-5-yl]oxy-propan-2-yl]propanamide], the pIC50 was 8.32.
Compound COc1cccc([C@@H](Oc2ccc3c(cnn3-c3ccc(F)cc3)c2)[C@H](C)NC(=O)c2cnoc2C)c1 [Example 284, N-[(1R,2S)-1-[1-(4-fluorophenyl)indazol-5-yl]oxy-1-(3-methoxyphenyl)propan-2-yl]-5-methyl-1,2-oxazole-4-carboxamide] has a pIC50 of 7.66.
Work on COc1cccc([C@@H](Oc2ccc3c(cnn3-c3ccc(F)cc3)c2)[C@H](C)NC(=O)[C@@H](C)O)c1 [Example 57, (2R)-N-[(1R,2S)-1-[1-(4-fluorophenyl)indazol-5-yl]oxy-1-(3-methoxyphenyl)propan-2-yl]-2-hydroxy-propanamide] yielded a pIC50 of 8.39.
In the case of COc1cccc([C@@H](Oc2ccc3c(cnn3-c3ccc(F)cc3)c2)[C@H](C)NC(=O)c2ccc(S(C)(=O)=O)s2)c1 [Example 273, N-[(1R,2S)-1-[1-(4-fluorophenyl)indazol-5-yl]oxy-1-(3-methoxyphenyl)propan-2-yl]-5-methylsulfonyl-thiophene-2-carboxamide], the pIC50 was 8.10.
Compound COc1cccc([C@@H](Oc2ccc3c(cnn3-c3ccc(F)cc3)c2)[C@H](C)NC(=O)CO)c1 [Example 121, N-[(1R,2S)-1-[1-(4-fluorophenyl)indazol-5-yl]oxy-1-(3-methoxyphenyl)propan-2-yl]-2-hydroxy-acetamide] has a pIC50 of 8.55.
For Cc1ccc([C@@H](Oc2ccc3c(cnn3-c3ccc(F)cc3)c2)[C@H](C)NC(=O)c2ncc(C)s2)c(C)c1 [Example 197, N-[(1R,2S)-1-(2,4-dimethylphenyl)-1-[1-(4-fluorophenyl)indazol-5-yl]oxy-propan-2-yl]-5-methyl-1,3-thiazole-2-carboxamide], the pIC50 was 8.31.
For CCc1ccc([C@@H](Oc2ccc3c(cnn3-c3ccc(F)cc3)c2)[C@H](C)NC(=O)C(F)(F)F)cc1 [Example 46, N-[(1R,2S)-1-(4-ethylphenyl)-1-[1-(4-fluorophenyl)indazol-5-yl]oxy-propan-2-yl]-2,2,2-trifluoro-acetamide], the pIC50 was 8.47.
In the case of C[C@H](NC(=O)CO)[C@H](Oc1ccc2c(cnn2-c2ccc(F)cc2)c1)c1ccc(C(F)(F)F)cc1 [Example 60, N-[(1R,2S)-1-[1-(4-fluorophenyl)indazol-5-yl]oxy-1-[4-(trifluoromethyl)phenyl]propan-2-yl]-2-hydroxy-acetamide], the pIC50 was 8.48.
CCOC(=O)CNC(=O)N[C@@H](C)[C@H](Oc1ccc2c(cnn2-c2ccc(F)cc2)c1)c1ccccc1 [Example 106, Ethyl N-{[(1S,2R)-2-{[1-(4-fluorophenyl)-1H-indazole-5-yl]oxy}-1-methyl-2-phenylethyl]carbamoyl}glycinate] was tested, and the pIC50 was 8.43.
C[C@H](NC(=O)C(F)(F)F)[C@@H](COc1ccccc1)Oc1ccc2c(cnn2-c2ccc(F)cc2)c1 (single isomer, unassigned) [Example 68, 2,2,2-Trifluoro-N-[(2S*,3S*)-3-[1-(4-fluorophenyl)indazol-5-yl]oxy-4-phenoxy-butan-2-yl]acetamide] gave a pIC50 of 8.77.
COc1ccc([C@@H](Oc2ccc3c(cnn3-c3ccc(F)cc3)c2)[C@H](C)NC(=O)C2(C)CC2)cc1F [Example 217, N-[(1R,2S)-1-(3-fluoro-4-methoxy-phenyl)-1-[1-(4-fluorophenyl)indazol-5-yl]oxy-propan-2-yl]-1-methyl-cyclopropane-1 carboxamide] showed a pIC50 of 8.41.
Compound COc1cccc([C@@H](Oc2ccc3c(cnn3-c3ccc(F)cc3)c2)[C@H](C)NC(=O)c2cn(C)cn2)c1 [Example 283, N-[(1R,2S)-1-[1-(4-fluorophenyl)indazol-5-yl]oxy-1-(3-methoxyphenyl)propan-2-yl]-1-methyl-imidazole-4-carboxamide] has a pIC50 of 8.33.
Work on C[C@H](NC(=O)Cc1ccccc1)[C@H](Oc1ccc2c(cnn2-c2ccc(F)cc2)c1)c1ccccc1 [Example 33, N-[(1R,2S)-1-[1-(4-fluorophenyl)indazol-5-yl]oxy-1-phenyl-propan-2-yl]-2-phenyl-acetamide] yielded a pIC50 of 7.74.
C[C@H](NC(=O)C(F)(F)F)[C@@H](COc1ccc(F)cc1F)Oc1ccc2c(cnn2-c2ccc(F)cc2)c1 [Example 305, N-((2S,3S)-4-(2,4-difluorophenoxy)-3-(1-(4-fluorophenyl)-1H-indazol-5-yloxy)butan-2-yl)-2,2,2-trifluoroacetamide] was tested, and the pIC50 was 8.08.
COc1cccc([C@@H](Oc2ccc3c(cnn3-c3ccc(F)cc3)c2)[C@H](C)NC(=O)C(N)=O)c1 [Example 76, N-[(1R,2S)-1-[1-(4-Fluorophenyl)indazol-5-yl]oxy-1-(3-methoxyphenyl)propan-2-yl]oxamide] showed a pIC50 of 8.66.
In the case of C[C@H](NC(=O)C(F)(F)F)[C@H](Oc1ccc2c(cnn2-c2ccc(F)cc2)c1)c1cccc(Cl)c1 [Example 155, N-[(1R,2S)-1-(3-chlorophenyl)-1-[1-(4-fluorophenyl)indazol-5-yl]oxy-propan-2-yl]-2,2,2-trifluoro-acetamide], the pIC50 was 8.30.
For C[C@H](NC(=O)C(C)(F)F)[C@H](Oc1ccc2c(cnn2-c2ccc(F)cc2)c1)c1cccc(Cl)c1 [Example 232, N-[(1R,2S)-1-(3-chlorophenyl)-1-[1-(4-fluorophenyl)indazol-5-yl]oxy-propan-2-yl]-2,2-difluoro-propanamide], the pIC50 was 8.27.
With COc1cccc([C@@H](Oc2ccc3c(cnn3-c3ccc(F)cc3)c2)[C@H](C)NC(=O)c2cc3ccccn3n2)c1 [Example 293, N-[(1R,2S)-1-[1-(4-fluorophenyl)indazol-5-yl]oxy-1-(3-methoxyphenyl)propan-2-yl]-1,9-diazabicyclo[4.3.0]nona-2,4,6,8-tetraene-8-carboxamide] the pIC50 was 8.36.
For COc1cccc([C@@H](Oc2ccc3c(cnn3-c3ccc(F)cc3)c2)[C@H](C)NC(=O)c2nnc(C)o2)c1 [Example 277, N-[(1R,2S)-1-[1-(4-fluorophenyl)indazol-5-yl]oxy-1-(3-methoxyphenyl)propan-2-yl]-5-methyl-1,3,4-oxadiazole-2-carboxamide], the pIC50 was 8.33.
Cc1cnc(C(=O)N[C@@H](C)[C@H](Oc2ccc3c(cnn3-c3ccc(F)cc3)c2)c2cc(C)c(C)cc2C)s1 [Example 206, N-[(1R,2S)-1-[1-(4-fluorophenyl)indazol-5-yl]oxy-1-(2,4,5-trimethylphenyl)propan-2-yl]-5-methyl-1,3-thiazole-2-carboxamide] showed a pIC50 of 8.12.
Cc1ccc(C)c([C@@H](Oc2ccc3c(cnn3-c3ccc(F)cc3)c2)[C@H](C)NC(=O)C(C)(C)F)c1 [Example 244, N-[(1R,2S)-1-(2,5-dimethylphenyl)-1-[1-(4-fluorophenyl)indazol-5-yl]oxy-propan-2-yl]-2-fluoro-2-methyl-propanamide] gave a pIC50 of 8.08.
With C[C@H](NC(=O)C(C)(C)C)[C@H](Oc1ccc2c(cnn2-c2ccc(F)cc2)c1)c1cc(F)cc(Cl)c1 [Example 184, N-[(1R,2S)-1-(3-chloro-5-fluoro-phenyl)-1-[1-(4-fluorophenyl)indazol-5-yl]oxy-propan-2-yl]-2,2-dimethyl-propanamide] the pIC50 was 8.29.
For COc1ccccc1[C@@H](Oc1ccc2c(cnn2-c2ccc(F)cc2)c1)[C@H](C)NC(=O)c1ncc(C)s1 [Example 209, N-[(1R,2S)-1-[1-(4-fluorophenyl)indazol-5-yl]oxy-1-(2-methoxyphenyl)propan-2-yl]-5-methyl-1,3-thiazole-2-carboxamide], the pIC50 was 8.39.
